According to ChEMBL document CHEMBL2086231, “Novel pleuromutilin derivatives as antibacterial agents: synthesis, biological evaluation and molecular docking studies” (2012):
In brackets after ≈: the same amount, converted by molar mass.

Assays:
Type in all cases: functional
Staphylococcus aureus [1] = experiment: Antibacterial activity against methicillin-resistant Staphylococcus aureus isolate cpu0446 after 18 to 20 hrs by agar dilution method
[2] = system: Staphylococcus epidermidis; experiment: Antibacterial activity against methicillin-sensitive Staphylococcus epidermidis isolate cpu2089 after 18 to 20 hrs by agar dilution method
Staphylococcus aureus [3] = experiment: Antibacterial activity against methicillin-resistant Staphylococcus aureus isolate cpu3256 after 18 to 20 hrs by agar dilution method
[4] = system: Staphylococcus epidermidis; experiment: Antibacterial activity against methicillin-resistant Staphylococcus epidermidis isolate cpu2736 after 18 to 20 hrs by agar dilution method
Staphylococcus aureus [5] = experiment: Antibacterial activity against methicillin-sensitive Staphylococcus aureus isolate cpu0211 after 18 to 20 hrs by agar dilution method
Staphylococcus aureus [6] = experiment: Antibacterial activity against methicillin-sensitive Staphylococcus aureus isolate cpu1344 after 18 to 20 hrs by agar dilution method
[7] = system: Staphylococcus epidermidis; experiment: Antibacterial activity against methicillin-sensitive Staphylococcus epidermidis isolate cpu0347 after 18 to 20 hrs by agar dilution method
[8] = system: Staphylococcus epidermidis; experiment: Antibacterial activity against methicillin-sensitive Staphylococcus epidermidis isolate cpu0315 after 18 to 20 hrs by agar dilution method
Staphylococcus aureus [9] = experiment: Antibacterial activity against methicillin-resistant Staphylococcus aureus isolate cpu1098 after 18 to 20 hrs by agar dilution method
Staphylococcus aureus [10] = experiment: Antibacterial activity against methicillin-sensitive Staphylococcus aureus isolate cpu0587 after 18 to 20 hrs by agar dilution method
[11] = system: Staphylococcus epidermidis; experiment: Antibacterial activity against methicillin-resistant Staphylococcus epidermidis isolate cpu3569 after 18 to 20 hrs by agar dilution method
[12] = system: Staphylococcus epidermidis; experiment: Antibacterial activity against methicillin-resistant Staphylococcus epidermidis isolate cpu2623 after 18 to 20 hrs by agar dilution method
[13] = system: Staphylococcus epidermidis; experiment: Antibacterial activity against methicillin-sensitive Staphylococcus epidermidis isolate cpu1561 after 18 to 20 hrs by agar dilution method
[14] = system: Staphylococcus epidermidis; experiment: Antibacterial activity against methicillin-resistant Staphylococcus epidermidis isolate cpu3889 after 18 to 20 hrs by agar dilution method
Staphylococcus aureus [15] = experiment: Antibacterial activity against methicillin-sensitive Staphylococcus aureus isolate cpu1044 after 18 to 20 hrs by agar dilution method
Staphylococcus aureus [16] = experiment: Antibacterial activity against methicillin-resistant Staphylococcus aureus isolate cpu0887 after 18 to 20 hrs by agar dilution method
Staphylococcus aureus [17] = experiment: Ratio of amoxicillin MIC to compound MIC for methicillin-resistant Staphylococcus aureus isolate cpu3256
Staphylococcus aureus [18] = experiment: Ratio of tiamulin MIC to compound MIC for methicillin-resistant Staphylococcus aureus isolate cpu0446
Staphylococcus aureus [19] = experiment: Ratio of tiamulin MIC to compound MIC for methicillin-resistant Staphylococcus aureus isolate cpu1098
Staphylococcus aureus [20] = experiment: Ratio of amoxicillin MIC to compound MIC for methicillin-resistant Staphylococcus aureus isolate cpu0887
Staphylococcus aureus [21] = experiment: Ratio of amoxicillin MIC to compound MIC for methicillin-resistant Staphylococcus aureus isolate cpu0446
Staphylococcus aureus [22] = experiment: Ratio of tiamulin MIC to compound MIC for methicillin-resistant Staphylococcus aureus isolate cpu0887
Staphylococcus aureus [23] = experiment: Ratio of amoxicillin MIC to compound MIC for methicillin-resistant Staphylococcus aureus isolate cpu1098
Staphylococcus aureus [24] = experiment: Ratio of tiamulin MIC to compound MIC for methicillin-resistant Staphylococcus aureus isolate cpu3256
Brachyspira pilosicoli = experiment: Antibacterial activity against Brachyspira pilosicoli
Mycoplasma = experiment: Antimicrobial activity against Mycoplasma by serial two fold dilution assay

Row | SMILES | MIC (Staphylococcus aureus [1]) [µg/mL] | MIC [2] [µg/mL] | MIC (Staphylococcus aureus [3]) [µg/mL] | MIC [4] [µg/mL] | MIC (Staphylococcus aureus [5]) [µg/mL] | MIC (Staphylococcus aureus [6]) [µg/mL] | MIC [7] [µg/mL] | MIC [8] [µg/mL] | MIC (Staphylococcus aureus [9]) [µg/mL] | MIC (Staphylococcus aureus [10]) [µg/mL] | MIC [11] [µg/mL] | MIC [12] [µg/mL] | MIC [13] [µg/mL] | MIC [14] [µg/mL] | MIC (Staphylococcus aureus [15]) [µg/mL] | MIC (Staphylococcus aureus [16]) [µg/mL] | other results
1 | C=C[C@]1(C)C[C@@H](OC(=O)CSCc2csc(NC(=O)CNC3CCCCC3)n2)[C@]2(C)[C@H](C)CC[C@]3(CCC(=O)[C@H]32)[C@@H](C)[C@@H]1O | 0.5 (≈ 0.774 µM) | 0.25 (≈ 0.387 µM) | 0.5 (≈ 0.774 µM) | 1 (≈ 1.55 µM) | 0.25 (≈ 0.387 µM) | 0.5 (≈ 0.774 µM) | 0.5 (≈ 0.774 µM) | 1 (≈ 1.55 µM) | 0.25 (≈ 0.387 µM) | 0.25 (≈ 0.387 µM) | 0.5 (≈ 0.774 µM) | 0.25 (≈ 0.387 µM) | 8 (≈ 12.4 µM) | 1 (≈ 1.55 µM) | 0.5 (≈ 0.774 µM) | 0.5 (≈ 0.774 µM) | –
2 | C=C[C@]1(C)C[C@@H](OC(=O)CSCc2csc(NC(=O)CN3CCCC3)n2)[C@]2(C)[C@H](C)CC[C@]3(CCC(=O)[C@H]32)[C@@H](C)[C@@H]1O | 0.25 (≈ 0.405 µM) | 0.125 (≈ 0.202 µM) | 0.25 (≈ 0.405 µM) | 0.5 (≈ 0.809 µM) | 0.125 (≈ 0.202 µM) | 0.25 (≈ 0.405 µM) | 0.25 (≈ 0.405 µM) | 2 (≈ 3.24 µM) | 0.25 (≈ 0.405 µM) | 0.125 (≈ 0.202 µM) | 0.5 (≈ 0.809 µM) | 0.5 (≈ 0.809 µM) | 0.5 (≈ 0.809 µM) | 0.25 (≈ 0.405 µM) | 0.25 (≈ 0.405 µM) | 0.5 (≈ 0.809 µM) | –
3 | C=C[C@]1(C)C[C@@H](OC(=O)CSCc2csc(N)n2)[C@]2(C)[C@H](C)CC[C@]3(CCC(=O)[C@H]32)[C@@H](C)[C@@H]1O | 0.25 (≈ 0.493 µM) | 0.125 (≈ 0.247 µM) | 0.5 (≈ 0.987 µM) | 0.125 (≈ 0.247 µM) | 0.5 (≈ 0.987 µM) | 0.125 (≈ 0.247 µM) | 0.125 (≈ 0.247 µM) | 0.125 (≈ 0.247 µM) | 0.5 (≈ 0.987 µM) | 2 (≈ 3.95 µM) | 0.125 (≈ 0.247 µM) | 0.125 (≈ 0.247 µM) | 0.125 (≈ 0.247 µM) | 0.125 (≈ 0.247 µM) | 2 (≈ 3.95 µM) | 0.0625 (≈ 0.123 µM) | Ratio (Staphylococcus aureus [17]): 4; Ratio (Staphylococcus aureus [18]): 4; Ratio (Staphylococcus aureus [19]): 4; Ratio (Staphylococcus aureus [20]): 4; Ratio (Staphylococcus aureus [21]): 4; Ratio (Staphylococcus aureus [22]): 4; Ratio (Staphylococcus aureus [23]): 4; Ratio (Staphylococcus aureus [24]): 4
4 | CC1(C)S[C@@H]2[C@H](NC(=O)[C@H](N)c3ccc(O)cc3)C(=O)N2[C@H]1C(=O)O [AMOXICILLIN] | 4 (≈ 10.9 µM) | 0.125 (≈ 0.342 µM) | 8 (≈ 21.9 µM) | 0.125 (≈ 0.342 µM) | 4 (≈ 10.9 µM) | 1 (≈ 2.74 µM) | 8 (≈ 21.9 µM) | 0.125 (≈ 0.342 µM) | 4 (≈ 10.9 µM) | 2 (≈ 5.47 µM) | 8 (≈ 21.9 µM) | 8 (≈ 21.9 µM) | 0.125 (≈ 0.342 µM) | 8 (≈ 21.9 µM) | 1 (≈ 2.74 µM) | 0.125 (≈ 0.342 µM) | –
5 | C=C[C@]1(C)C[C@@H](OC(=O)CSC(C)(C)CNC(=O)[C@H](N)C(C)C)[C@]2(C)[C@H](C)CC[C@]3(CCC(=O)[C@H]32)[C@@H](C)[C@@H]1O [VALNEMULIN] | – | – | – | – | – | – | – | – | – | – | – | – | – | – | – | – | MIC (Brachyspira pilosicoli): 0.03 µg/mL (≈ 0.0531 µM)
6 | C=C[C@]1(C)C[C@@H](OC(=O)CSCCN(CC)CC)[C@]2(C)[C@H](C)CC[C@]3(CCC(=O)[C@H]32)[C@@H](C)[C@@H]1O [TIAMULIN] | 2 (≈ 4.05 µM) | 0.5 (≈ 1.01 µM) | 2 (≈ 4.05 µM) | 0.0625 (≈ 0.127 µM) | 2 (≈ 4.05 µM) | 2 (≈ 4.05 µM) | 0.5 (≈ 1.01 µM) | 0.0625 (≈ 0.127 µM) | 2 (≈ 4.05 µM) | 8 (≈ 16.2 µM) | 0.25 (≈ 0.506 µM) | 1 (≈ 2.03 µM) | 0.0625 (≈ 0.127 µM) | 1 (≈ 2.03 µM) | 8 (≈ 16.2 µM) | 0.5 (≈ 1.01 µM) | MIC (Mycoplasma): < 1 µg/mL
